# Data: patent publication US12581252B2, “Substituted pyrrolo[3,4-b]pyridines as PI3K-α inhibitors” (Relay Therapeutics, Inc., priority 2020, dated 2026)
# Molecular target: H1047R PIK3CA enzyme (Homo sapiens, UniProt P42336, H1047R)
# Assay: ADP-Glo Biochemical PIK3CA Kinase Assay
# Sequence of H1047R PIK3CA enzyme (P42336 whole entry H1047R): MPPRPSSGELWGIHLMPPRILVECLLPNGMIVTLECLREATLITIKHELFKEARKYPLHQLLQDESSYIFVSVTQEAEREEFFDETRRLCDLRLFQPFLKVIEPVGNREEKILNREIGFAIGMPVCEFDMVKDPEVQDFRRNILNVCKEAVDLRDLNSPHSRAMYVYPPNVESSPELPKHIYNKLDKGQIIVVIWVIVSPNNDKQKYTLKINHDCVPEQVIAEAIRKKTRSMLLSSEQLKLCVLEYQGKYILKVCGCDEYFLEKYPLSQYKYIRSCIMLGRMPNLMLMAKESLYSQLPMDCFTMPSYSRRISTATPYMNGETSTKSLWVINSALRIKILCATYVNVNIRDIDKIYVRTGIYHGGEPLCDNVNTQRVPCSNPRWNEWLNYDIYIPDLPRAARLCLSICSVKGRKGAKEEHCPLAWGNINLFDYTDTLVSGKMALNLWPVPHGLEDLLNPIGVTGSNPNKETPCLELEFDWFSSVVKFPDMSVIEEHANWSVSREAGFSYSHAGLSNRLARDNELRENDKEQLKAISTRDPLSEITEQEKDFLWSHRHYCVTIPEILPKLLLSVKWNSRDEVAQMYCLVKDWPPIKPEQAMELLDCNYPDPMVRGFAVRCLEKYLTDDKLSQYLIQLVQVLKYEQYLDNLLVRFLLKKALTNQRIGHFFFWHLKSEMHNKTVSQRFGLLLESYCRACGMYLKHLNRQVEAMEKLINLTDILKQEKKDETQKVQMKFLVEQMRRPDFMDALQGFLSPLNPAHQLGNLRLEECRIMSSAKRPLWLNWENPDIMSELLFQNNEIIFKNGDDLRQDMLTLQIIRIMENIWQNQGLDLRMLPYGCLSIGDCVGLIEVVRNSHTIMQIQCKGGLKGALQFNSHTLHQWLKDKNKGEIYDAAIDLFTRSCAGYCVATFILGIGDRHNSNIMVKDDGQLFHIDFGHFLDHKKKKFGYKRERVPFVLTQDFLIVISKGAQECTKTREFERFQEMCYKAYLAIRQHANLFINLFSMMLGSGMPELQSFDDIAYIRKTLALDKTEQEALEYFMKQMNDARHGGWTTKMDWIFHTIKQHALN
# Sequence of H1047R PIK3CA enzyme (P27986 whole entry partner): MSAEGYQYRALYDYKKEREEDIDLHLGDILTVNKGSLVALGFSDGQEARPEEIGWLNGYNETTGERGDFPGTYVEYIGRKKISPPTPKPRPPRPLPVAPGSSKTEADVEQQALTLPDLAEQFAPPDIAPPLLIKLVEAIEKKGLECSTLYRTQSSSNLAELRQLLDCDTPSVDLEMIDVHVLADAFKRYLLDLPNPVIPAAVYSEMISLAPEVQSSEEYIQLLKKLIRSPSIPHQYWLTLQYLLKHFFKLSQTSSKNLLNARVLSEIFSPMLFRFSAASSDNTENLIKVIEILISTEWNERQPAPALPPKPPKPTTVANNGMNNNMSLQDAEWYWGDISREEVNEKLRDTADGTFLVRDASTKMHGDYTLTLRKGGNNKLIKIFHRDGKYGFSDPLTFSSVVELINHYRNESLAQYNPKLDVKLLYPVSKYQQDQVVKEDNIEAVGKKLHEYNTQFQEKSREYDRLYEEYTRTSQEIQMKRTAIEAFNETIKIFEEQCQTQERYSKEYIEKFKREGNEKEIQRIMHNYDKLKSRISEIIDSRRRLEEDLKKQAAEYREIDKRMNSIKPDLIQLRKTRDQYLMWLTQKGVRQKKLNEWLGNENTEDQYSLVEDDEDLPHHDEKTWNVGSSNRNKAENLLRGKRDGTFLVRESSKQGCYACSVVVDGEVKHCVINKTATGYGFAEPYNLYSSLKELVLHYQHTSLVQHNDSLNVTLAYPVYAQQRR
row,SMILES,IC50
1,O=C1NC(c2cc(F)ccc2Cl)c2c(O)cc(-c3ccc4ncnn4c3)cc21 (centres unmarked) [Compound I-1891],1 to 10 µM
2,CC(C)(O)c1cc(NC(=O)c2cc(F)cc(C(F)(F)F)c2)c2c(c1)C(=O)N[C@@H]2c1cc(F)ccc1Cl [Compound I-190],1 to 10 µM
3,O=C(Nc1cc(O[C@H]2CC[C@@H]2O)cc2c1C(c1cc(F)ccc1Cl)NC2=O)c1cc(F)cc(C(F)(F)F)c1 (mixture of isomers) [Compound I-1289],0.1 to 0.5 µM
4,CC(C)(O)CNc1cc(NC(=O)c2cc(F)cc(C(F)(F)F)c2)c2c(c1)C(=O)N[C@H]2c1cc(F)ccc1Cl [Compound I-899],10 to 100 µM
5,O=C1NC(c2cc(F)ccc2Cl)c2c(NC(=O)C34CC5CC(C3)CC(C(F)(F)F)(C5)C4)cc(Br)cc21 (centres unmarked) [Compound I-1183],≤ 0.1 µM
6,CS(=O)(=O)Cc1cc(NC(=O)c2cc(F)cc(C(F)(F)F)c2)c2c(c1)C(=O)N[C@@H]2c1cc(F)ccc1Cl [Compound I-619],1 to 10 µM
7,CC(=O)N1CCC(C2NC(=O)c3cccc(NC(=O)c4cc(F)cc(C(F)(F)F)c4)c32)CC1 (centres unmarked) [Compound I-1818],10 to 100 µM
8,O=C1NC(c2cc(F)ccc2Cl)c2c(NC(=O)N3CC(=O)N4CCCC4C3)cc(Br)cc21 (centres unmarked) [Compound I-766],10 to 100 µM
9,O=C(Nc1cccc2c1C(c1ccc(Br)cc1Cl)NC2=O)c1cc(F)cc(C(F)(F)F)c1 (centres unmarked) [Compound I-409],1 to 10 µM
10,CC(C)(O)c1cc(NC(=O)c2cc(F)cc(C(F)(F)F)c2)c2c(c1)C(=O)NC2c1cc(F)ccc1C(F)F (centres unmarked) [Compound I-239],≤ 0.1 µM
11,O=C1NC(c2cc(F)ccc2Cl)c2c(NC(=O)C3CCCO3)cc(-c3ccc4ncnn4c3)cc21 (centres unmarked) [Compound I-1831],10 to 100 µM
12,O=C1NC(c2cc(F)ccc2Cl)c2c(Nc3nc4ccccc4s3)cc(-c3ccc4ncnn4c3)cc21 (centres unmarked) [Compound I-1659],0.1 to 0.5 µM
13,Cc1ccccc1C1NC(=O)c2cccc(Nc3nc(C)c4ccccc4n3)c21 (centres unmarked) [Compound I-28],10 to 100 µM
14,CCn1cc(-c2cc(NC(=O)c3cc(F)cc(C(F)(F)F)c3)c3c(c2)C(=O)NC3c2cc(F)ccc2Cl)ccc1=O (centres unmarked) [Compound I-649],≤ 0.1 µM
15,Cn1cc(-c2cc(NC(=O)c3cc(F)cc(C(F)(F)F)c3)c3c(n2)C(=O)NC3c2cc(F)ccc2Cl)ccc1=O (centres unmarked) [Compound I-547],≤ 0.1 µM

# Results, then the compound that gave them:
row,IC50,SMILES
1,1 to 10 µM,"CC1(Cc2cc(NC(=O)N3C[C@](O)(C(F)(F)F)c4cc(F)ccc43)c3c(c2)C(=O)N[C@H]3c2cc(F)ccc2Cl)COC1 (single isomer, unassigned) [Compound I-2659]"
2,10 to 100 µM,O=C(Nc1cccc2c1C(c1cc(F)ccc1Cl)NC2=O)c1coc2c1COC2 (centres unmarked) [Compound I-2265]
3,0.5 to 1 µM,"O=C1N[C@@H](c2cc(F)ccc2Cl)c2c(NC(=O)N3C[C@@](O)(C(F)(F)F)c4cc(F)ccc43)ccc(Cl)c21 (single isomer, unassigned) [Compound I-2621]"
4,0.5 to 1 µM,Cn1nc(Nc2cc(-c3ccc4ncnn4c3)cc3c2C(c2cc(F)ccc2Cl)NC3=O)c2cc(F)cc(C(F)(F)F)c21 (centres unmarked) [Compound I-2050]
5,10 to 100 µM,O=C(Nc1cccc2c1[C@H]([C@@H]1COCCN1)NC2=O)c1cc(F)cc(C(F)(F)F)c1 (racemic) [Compound I-1901]
6,1 to 10 µM,"CC(C)[C@]1(O)CN(C(=O)Nc2cccc3c2[C@H](c2cc(F)ccc2Cl)NC3=O)c2ccc(F)cc21 (single isomer, unassigned) [Compound I-2453]"
7,1 to 10 µM,CC(C)(C)CCC1NC(=O)c2cccc(NC(=O)c3cc(F)cc(C(F)(F)F)c3)c21 (centres unmarked) [Compound I-2196]
8,0.5 to 1 µM,"C[C@@]1(C(=O)Nc2cc(Br)cc3c2[C@@H](c2cc(F)ccc2Cl)NC3=O)CCC[C@H](C(F)(F)F)C1 (single isomer, unassigned) [Compound I-2260]"
9,10 to 100 µM,O=C1NC(c2cc(F)ccc2Cl)c2c(NC(=O)N3CCSc4ccccc43)cccc21 (centres unmarked) [Compound I-2284]
10,≤ 0.1 µM,O=C(Nc1cc(-c2ccnc(C(=O)O)c2)cc2c1C(c1cc(F)ccc1Cl)NC2=O)c1cc(F)cc(C(F)(F)F)c1 (centres unmarked) [Compound I-2137]
11,10 to 100 µM,CN1CC=C(c2cc(-c3ccc4ncnn4c3)cc3c2C(c2cc(F)ccc2Cl)NC3=O)CC1 (centres unmarked) [Compound I-2021]
